Reference: article PMC4414353, “Synthesis and evaluation of novel amide amino-β-lactam derivatives as cholesterol absorption inhibitors” (Bioorganic & medicinal chemistry, 2015)
pIC50: −log10 of the molar value. Several values for one entry are separate records, joined by “and”; a condition that tells them apart may be missing. Equal values may be shown once. Read-outs that look alike come from different tables or passages of the source.

Experiments:
[1] = MTT cell proliferation assay (cytotoxicity), MDCKIIwt; assay type: cell-based; settings: dog, MDCKII wild-type cells, 72 h incubation, read-out: LC50, MDCKII
Protocol: (§1) Cytotoxicity of ezetimibe 1 and of newly synthesized amides 5a–f was determined using MTT cell proliferation assay in Madine-Darby Canine Kidney II wild-type (MDCKIIwt), MDCKII cells stably expressing hNPC1L1 (hNPC1L1/MDCKII) and HepG2 cell lines (Table 1). hNPC1L1/MDCKII were used as a pharmacologically validated model for investigating NPC1L1-mediated cholesterol uptake.[21] LC50 values were determined and values higher than 100 μM were considered non-toxic.
(§2) Madin-Darby Canine Kidney II wild type (MDCKIIwt), MDCKII cells stably expressing human NPC1L1 (hNPC1L1/MDCKII), and HepG2 cells were cultured in Dulbecco’s Modified Eagle Medium (DMEM) (Gibco,® Life Technologies, Carlsbad, USA) containing 10% fetal calf serum (FCS) (Sigma–Aldrich, Munich, Germany), 1% penicillin/streptomycin in a humidified 5% CO2 incubator at 37 °C. MDCKIIwt cells were stably transfected with human NPC1L1 using Lipofectamine LTX (Life Technologies, Carlsbad, USA) according to the manufacturer’s protocol. After 48 h, selection with 1000 μg/mL G418 (Sigma–Aldrich, Munich, Germany) was started. Selection lasted for two weeks, after which transfected cells were maintained in the medium containing 500 μg/mL G418.
(§3) MDCKIIwt, hNPC1L1/MDCKII, and HepG2 cells were plated in 96-well microtiter plates at 2 × 10^4 cells/mL on day 0. On the next day, tested compounds were added to obtain five 10-fold consecutive dilutions in range from 10^−8 to 10^−4 mol/L, and incubated for further 72 h. Cytotoxicity of the compounds was determined by the MTT cell proliferation assay (Sigma–Aldrich, Munich, Germany).[22] The results are expressed as LC50 values. The absorbance (A) was measured on a microplate reader at 570 nm. Cytotoxicity of each compound was tested in quadruplicate in three independent experiments. Furthermore, toxicity of the compounds in combination with micelles was tested using the same method. MDCKIIwt and hNPC1L1/MDCKII were plated in 96-well microtiter plates (150 μL medium/well) at 2 × 10^5 cells/mL 24 h before the experiment. Micelles were prepared according to the modified method described by Field et al.[23] In brief, micellar components were mixed with DMEM supplemented with 10% FCS to obtain final concentrations of 0.25 mM oleic acid, 50 μM cholesterol, 10 μM compactin, 50 μM mevalonate, 5 mM Na-taurocholate (Sigma–Aldrich, Munich, Germany) and sonicated. Tested compounds (25, 50, 100, 150, 200 μM) were added to the prepared medium, vortexed and applied to the cells for 1 h. Cytotoxicity was determined using the MTT assay.

hNPC1L1/MDCKII cells [2] = test: In vitro [3H]cholesterol uptake; assay type: cell-based, Canine; settings: for pIC50: Canis lupus familiaris, MDCK-II, read-out: IC50, inhibition of cholesterol uptake; for maximum inhibition of cholesterol uptake: compared to untreated cells
Protocol: Ezetimibe analogs 5a–f were tested for inhibition of cholesterol uptake in hNPC1L1/MDCKII cells (Fig. 3).
The results are expressed as percentage of inhibition compared to untreated cells and represent mean ± SEM of three independent experiments. *p <0.05, **p <0.01, ***p <0.001 determined by one-way ANOVA followed by Dunnett’s test.
In vitro cholesterol uptake was determined as described by Dražić et al.[19] In brief, hNPC1L1/MDCKII cells were plated in 24-well plates at 5 × 10^5 cells/mL medium (500 μL medium/well) in DMEM supplemented with 5% LPDS 24 h before the treatment. Cells were washed once with PBS and medium containing micelles, [^3H]cholesterol (0.18 μCi/mL medium) ([1,2-3H(N)] cholesterol, 1 mCi/mL, ARC Inc., St. Louis, USA) and tested compounds in concentrations of 0–200 μM was added. After 1 h, the medium was removed, cells were washed three times with ice-cold 0.2% free fatty acid-free BSA and lysed. Radioactivity in the lysate (100 μL) was measured by liquid scintillation counting. Protein content in lysates was determined with the DC Protein Assay (Bio-Rad, Hercules, USA). The results were expressed as percentage of inhibition compared to untreated cells in CPM/mg protein. Activity of each compound was tested in duplicate in three independent experiments.

[3] = MTT cell proliferation assay (cytotoxicity), HepG2; assay type: cell-based; settings: human, HepG2 cells, 72 h incubation, read-out: LC50, HepG2
Protocol: The results are expressed as LC50 values. […] Cytotoxicity was determined using the MTT assay.

in vitro = settings: dog
Protocol: as §1, §2, §3

C57BL/6 mice = test: In vivo acute cholesterol absorption; settings: 20 mg/kg/day for 2 days, oral gavage, reduction in [3H]cholesterol radioactivity relative to vehicle, mean ± SEM
Protocol: Finally, we tested the in vivo inhibition of cholesterol absorption of ezetimibe 1 and 4-F-phenyl representatives (5b,d,f) from each group of ezetimibe analogs. For in vivo testing, we used the compounds with lower IC50 values and higher inhibition of cholesterol uptake as determined in vitro. For that purpose, mice were treated with 20 mg/kg/day of each compound for two days, gavaged with [^3H]cholesterol and radioactivity was measured in the liver and three equal parts of the small intestine (duodenum, jejunum, ileum). The results are expressed as percent reduction in radioactivity relative to vehicle (Table 2). […] In the three parts of the small intestine (duodenum, jejunum, ileum), ezetimibe 1 lowered [^3H]cholesterol by 60%, 52%, and 44%, respectively.
26 weeks old male C57BL/6 mice (3–4 per group) were maintained in a temperature-controlled environment under a 12 h light/12 h dark cycle with free access to chow diet (Altromin Spezialfutter GmbH, Lage, Germany) and water. For two days, mice were treated with ezetimibe, tested compounds (20 mg/kg/day) or vehicle. For the treatment, compounds were dissolved in corn oil and administered to mice (100 μL) after 4 h fasting by oral gavage. On day 2, 90 min after compound administration, mice were gavaged with corn oil (200 μL) containing [^3H]cholesterol (2 μCi) ([1,2-3H(N)] cholesterol, 1 mCi/mL, ARC Inc., St. Louis, USA). Liver and small intestines were collected 4 h post-gavage and cholesterol uptake and absorption were determined as previously described.[24] Animal experiments were performed according to the standards set by the Austrian Federal Ministry of Science, Research, and Economy, Vienna, Austria.

hNPC1L1/MDCKII cells [4] = system: hNPC1L1/MDCKII cells; parameters: method as in PMID 25305716; settings: determined previously, cited from earlier work
[5] = hNPC1L1/MDCKII cells, 1 h, micelles with [3H]cholesterol
[6] = MDCKII cells stably expressing human NPC1L1 (hNPC1L1/MDCKII)
[7] = listed as ezetimibe 1, 20 mg/kg/day

Row | SMILES | CC50 at 72 h [1] | pIC50 (hNPC1L1/MDCKII cells [2]; [5]) | concentration at which maximum inhibition of cholesterol uptake was reached (hNPC1L1/MDCKII cells [2]; hNPC1L1/MDCKII cells) | maximum inhibition of cholesterol uptake (hNPC1L1/MDCKII cells [2]; hNPC1L1/MDCKII cells) | CC50 at 72 h [3] | CC50 at 72 h (in vitro; [6]) | pIC50 (hNPC1L1/MDCKII cells [2]) | CC50 at 72 h (in vitro) | In vivo inhibition of cholesterol absorption, Duodenum (C57BL/6 mice; 20 mg/kg/day) | In vivo inhibition of cholesterol absorption, Ileum (C57BL/6 mice; 20 mg/kg/day) | In vivo inhibition of cholesterol absorption, Jejunum (C57BL/6 mice; 20 mg/kg/day) | In vivo inhibition of cholesterol absorption, Liver (C57BL/6 mice; 20 mg/kg/day) | pIC50 (hNPC1L1/MDCKII cells [4]; read-out: IC50, inhibition of cholesterol uptake) | maximum inhibition of cholesterol uptake (hNPC1L1/MDCKII cells [4]) | In vivo inhibition of cholesterol absorption, Duodenum (C57BL/6 mice; [7]) | In vivo inhibition of cholesterol absorption, Ileum (C57BL/6 mice; [7]) | In vivo inhibition of cholesterol absorption, Jejunum (C57BL/6 mice; [7]) | In vivo inhibition of cholesterol absorption, Liver (C57BL/6 mice; [7])
1 | O=C(/C=C/c1ccccc1)N[C@H]1C(=O)N(c2ccc(F)cc2)[C@@H]1c1ccc(O)cc1 [Compound 5a, (E)-N-((2R,3R)-1-(4-Fluorophenyl)-2-(4-hydroxyphenyl)-4-oxoazetidin-3-yl)cinnamamide] | 66.5 µM | 4.70 | 60 µM | ~ 45% | 63.3 µM | 65.1 µM | – | – | – | – | – | – | – | – | – | – | – | –
2 | O=C(/C=C/c1ccc(F)cc1)N[C@H]1C(=O)N(c2ccc(F)cc2)[C@@H]1c1ccc(O)cc1 [Compound 5b, (E)-3-(4-Fluorophenyl)-N-((2R,3R)-1-(4-fluorophenyl)-2-(4-hydroxyphenyl)-4-oxoazetidin-3-yl)acrylamide] | 64 µM | – | 60 µM | ~ 45% | 57.5 µM | – | 4.74 | 63.3 µM | 27% and 27 ± 10% | 37% and 37 ± 15% | 35% and 35 ± 8% | 49% and 49 ± 5 % | – | – | – | – | – | –
3 | O=C(Cc1ccccc1)N[C@H]1C(=O)N(c2ccc(F)cc2)[C@@H]1c1ccc(O)cc1 [Compound 5c, N-((2R,3R)-1-(4-Fluorophenyl)-2-(4-hydroxyphenyl)-4-oxoazetidin-3-yl)-2-phenylacetamide] | > 100 µM | 4.06 | – | ~ 40% | > 100 µM | > 100 µM | – | – | – | – | – | – | – | – | – | – | – | –
4 | O=C1[C@H](CC[C@H](O)c2ccc(F)cc2)[C@@H](c2ccc(O)cc2)N1c1ccc(F)cc1 [Compound 1, Ezetimibe, reference compound] | > 100 µM | – | – | – | 69.7 µM | 62.3 µM | – | – | 60 ± 6 % | 44 ± 11% | 52 ± 3 % | 53 ± 2 % | 4.62 | 40% | 60% | 44% | 52% | 53%
5 | O=C(Cc1ccc(F)cc1)N[C@H]1C(=O)N(c2ccc(F)cc2)[C@@H]1c1ccc(O)cc1 [Compound 5d, 2-(4-Fluorophenyl)-N-((2R,3R)-1-(4-fluorophenyl)-2-(4-hydroxyphenyl)-4-oxoazetidin-3-yl)acetamide] | > 100 µM | 4.34 | – | ~ 40% | > 100 µM | > 100 µM | – | – | 15% and 15 ± 12% | 24% and 24 ± 13% | 14% and 14 ± 20% | 39% and 39 ± 11 % | – | – | – | – | – | –
6 | O=C(N[C@H]1C(=O)N(c2ccc(F)cc2)[C@@H]1c1ccc(O)cc1)c1ccccc1 [Compound 5e, N-((2R,3R)-1-(4-Fluorophenyl)-2-(4-hydroxyphenyl)-4-oxoazetidin-3-yl)benzamide] | 91.2 µM | 4.15 | – | – | 67.6 µM | 68.3 µM | – | – | – | – | – | – | – | – | – | – | – | –
7 | O=C(N[C@H]1C(=O)N(c2ccc(F)cc2)[C@@H]1c1ccc(O)cc1)c1ccc(F)cc1 [Compound 5f, 4-Fluoro-N-((2R,3R)-1-(4-fluorophenyl)-2-(4-hydroxyphenyl)-4-oxoazetidin-3-yl)benzamide] | 78.6 µM | 4.27 | – | – | 71.9 µM | 64.7 µM | – | – | 42% and 42 ± 2% | 28% and 28 ± 7% | 32% and 32 ± 6% | 37% and 37 ± 8 % | – | – | – | – | – | –
